According to patent US5874432A, “Saccharin derivatives useful as proteolytic enzyme inhibitors and compositions and method of use thereof” (priority 1997, dated 1999):
Where two headings read alike, the source gives them in different places.

Key:
[1] = target: T1, human leukocyte elastase (Homo sapiens, UniProt P08246); assay: elastase inhibition using human leukocyte elastase (kon and Ki*); assay type: biochemical; conditions: for Ki: Ki* = koff/kon; for kon: rate of inactivation of enzyme, value is 10^-3 × kon, read-out: Elastase 10^-3 × kon
T1 sequence (P08246 30-267): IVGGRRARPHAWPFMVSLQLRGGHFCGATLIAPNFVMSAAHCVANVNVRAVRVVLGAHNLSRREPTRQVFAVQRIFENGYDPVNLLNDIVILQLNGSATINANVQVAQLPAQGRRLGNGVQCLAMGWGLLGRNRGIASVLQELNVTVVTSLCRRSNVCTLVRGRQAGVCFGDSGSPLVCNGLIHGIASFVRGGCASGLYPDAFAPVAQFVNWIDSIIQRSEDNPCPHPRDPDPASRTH

[2] = target: α-Chymotrypsin (Bos taurus, UniProt P00766); assay: α-chymotrypsin inhibition (kon and Ki*); assay type: biochemical; conditions: for Ki: Ki* = koff/kon
Experimental: Measurement of the inhibition constant, Ki, of a HLE-inhibitor complex has been described for "truly reversible inhibition constants" usually concerning competitive inhibitors. [Cha, Biochem. Pharmacol., 24, 2177-2185 (1975)]. […] Thus, instead of measuring a Ki, a Ki * is calculated which is defined as the ratio of the koff /kon, the rate of reactivation of the enzyme to the rate of inactivation of the enzyme. The values of koff and kon are measured and Ki * is then calculated. The rate of inactivation, kon, of enzymatic activity was determined for the compounds tested by measuring the enzyme activity of an aliquot of the respective enzyme as a function of time after addition of the test compound. […] The rate of inactivation is then equal to [formula] where [I] is the concentration of the inhibiting compound. The reactivation constant, koff, is similarly determined and the inhibition constant, Ki *, is then calculated as Ki *=koff /kon The values obtained for kon and Ki * for specific substituted saccharin derivatives are shown in TABLE F, the compounds being identified by the Example numbers above where their preparations are described.

[3] = read-out: α-Chymotrypsin 10^-3 × kon

SMILES | Ki ([1]; read-out: Elastase Ki *) | kon [1] | Ki [2] | kon [2, 3] | kon ([2]; rate of inactivation of enzyme, value is 10^-3 × kon) | Ki ([1]; human leukocyte elastase, read-out: Ki * values, elastase inhibition (Examples 41-57))
CC(=O)OCN1C(=O)c2c(C)cccc2S1(=O)=O [Example 1, 2-acetoxymethyl-4-methylsaccharin] | 0.102 µM | 630 M⁻¹ s⁻¹ | 0.917 µM | 1200 M⁻¹ s⁻¹ | – | –
CC(=O)OCN1C(=O)c2c(Cl)cccc2S1(=O)=O [Example 2, 2-acetoxymethyl-4-chlorosaccharin] | 0.045 µM | 4900 M⁻¹ s⁻¹ | 0.051 µM | 2900 M⁻¹ s⁻¹ | – | –
O=C1c2c(Cl)cccc2S(=O)(=O)N1CCl [Example 3, 2-chloromethyl-4-chlorosaccharin] | 0.0005 µM | 450000 M⁻¹ s⁻¹ | 0.026 µM | 5800 M⁻¹ s⁻¹ | – | –
O=C1c2c(Cl)cccc2S(=O)(=O)N1Cn1nnn(-c2ccccc2)c1=S [Example 5, 4-chloro-2-(4-phenyl-5-thioxotetrazolin-1-ylmethyl)saccharin] | 0.006 µM | 44000 M⁻¹ s⁻¹ | 0.025 µM | 6000 M⁻¹ s⁻¹ | – | –
CC(=O)Nc1cccc(-n2nnnc2SCN2C(=O)c3ccccc3S2(=O)=O)c1 [Example 6, 2-[1-(3-acetamidophenyl)-1H-tetrazol-5-ylthiomethyl]saccharin] | 0.015 µM | 5500 M⁻¹ s⁻¹ | 0.3 µM | 3700 M⁻¹ s⁻¹ | – | –
Cn1nnnc1SCN1C(=O)c2ccccc2S1(=O)=O [Example 8, 2-(1-methyl-1H-tetrazol-5-ylthiomethyl)saccharin] | – | 1000 M⁻¹ s⁻¹ | 0.523 µM | – | 2100 M⁻¹ s⁻¹ | –
O=C1c2ccccc2S(=O)(=O)N1C[S+]([O-])c1nnnn1-c1ccccc1 (centres unmarked) [Example 10, 2-(1-phenyl-1H-tetrazol-5-ylsulfinylmethyl)saccharin] | 0.011 µM | 7000 M⁻¹ s⁻¹ | 0.157 µM | 7000 M⁻¹ s⁻¹ | – | –
O=C1c2ccccc2S(=O)(=O)N1CS(=O)(=O)c1ccccc1 [Example 12, 2-(phenylsulfonylmethyl)saccharin] | 0.082 µM | 970 M⁻¹ s⁻¹ | 1 µM | 1100 M⁻¹ s⁻¹ | – | –
O=C1c2ccccc2S(=O)(=O)N1C[S+]([O-])c1ncccn1 (centres unmarked) [Example 13, 2-(2-pyrimidylsulfinylmethyl)saccharin] | 0.285 µM | 300 M⁻¹ s⁻¹ | 0.423 µM | 2600 M⁻¹ s⁻¹ | – | –
O=C1c2ccccc2S(=O)(=O)N1CS(=O)(=O)c1ncccn1 [Example 14, 2-(2-pyrimidylsulfonylmethyl)saccharin] | 0.138 µM | 600 M⁻¹ s⁻¹ | 0.392 µM | 2800 M⁻¹ s⁻¹ | – | –
O=C1c2c(-c3ccccc3)cccc2S(=O)(=O)N1CCl [Example 18, 2-chloromethyl-4-phenylsaccharin] | 0.1 µM | 1000 M⁻¹ s⁻¹ | 0.62 µM | 210 M⁻¹ s⁻¹ | – | –
O=C(O)Cn1nnnc1SCN1C(=O)c2ccccc2S1(=O)=O [Example 34, 2-[1-(2-carboxymethyl)-1H-tetrazol-5-ylthiomethyl]saccharin] | 0.256 µM | 400 M⁻¹ s⁻¹ | – | – | – | –
O=C(O)CCC(=O)Nc1cccc(-n2nnnc2SCN2C(=O)c3ccccc3S2(=O)=O)c1 [Example 35, 2-[1-(3-succinoylaminophenyl)-1H-tetrazol-5-ylthiomethyl]saccharin] | 0.022 µM | 3600 M⁻¹ s⁻¹ | – | – | – | –
O=C1c2ccccc2S(=O)(=O)N1/C=C/CSc1nnnn1-c1ccccc1 [Example 38, trans-2-[3-(1-phenyl-1H-tetrazol-5-ylthio)-1-propenyl]saccharin] | 0.002 µM | 43000 M⁻¹ s⁻¹ | – | – | – | –
CC(C)c1cccc2c1C(=O)N(CN1C(=O)CNS1(=O)=O)S2(=O)=O [Example 42D] | – | – | – | – | – | 1 µM
